Source: patent US5023275A, “S-substituted beta-thioacrylamide biocides and fungicides” (Rohm and Haas Company, priority 1990, dated 1991)
Values after ≈ are worked out from the molar mass of the structure shown. Read-outs that look alike come from different tables or passages of the source.

What was measured:
Candida albicans (C.alb) = test: Alternate Minimum Inhibitory Concentration test, C.alb (Table 7); type: cell-based; details: TSB, 72 hours, 30° C.
[1] = system: Puccinia graminis (f. sp. tritici Race 15B-2); type: in vivo; details: wheat, two weeks
[2] = system: Aureobasidium pullulans (A.p); test: Alternate Minimum Inhibitory Concentration test, A.p (Table 7); type: cell-based; details: TSB, 72 hours, 30° C.
Aspergillus niger (A.n) [3] = test: Alternate Minimum Inhibitory Concentration test, A.n (Table 7); type: cell-based; details: TSB, 72 hours, 30° C.
Escherichia coli (E.c) [4] = test: Alternate Minimum Inhibitory Concentration test, E.c (Table 7); type: cell-based; details: TSB, 72 hours, 30° C.
[5] = system: Erysiphe graminis (f. sp. tritici); details: in vivo
[6] = system: Pseudomonas aerugenosa (Ps.ae); test: Alternate Minimum Inhibitory Concentration test, Ps.ae (Table 7); type: cell-based; details: TSB, 72 hours, 30° C.
Phytophthora infestans = type: in vivo; details: tomato, 4 days after inoculation
Piricularia oryzae = type: in vivo; details: rice, 7 to 8 days after inoculation
[7] = system: Pseudoperonospora cubensis; details: in vivo
[8] = system: Pseudomonas fluorescens (Ps.fl); test: Alternate Minimum Inhibitory Concentration test, Ps.fl (Table 7); type: cell-based; details: TSB, 72 hours, 30° C.
Procedure: From this solution, 100 μl was transferred to the first row of two microtiter plate columns. […] Inoculation was accomplished by diluting a 24 hr Ps fl culture, four mls per 36 mls of phosphate buffer solution. A Dynatech autoinoculator was used to transfer 1.5 μl of this cell suspension to the microtiter plates.

[9] = system: Pellicularia filamentosa (f. sp. sasiki); details: in vivo
[10] = system: Staphylococcus aureus (S.a); test: Alternate Minimum Inhibitory Concentration test, S.a (Table 7); type: cell-based; details: TSB, 72 hours, 30° C.
Aspergillus niger (A.n) [11] = test: MIC, broth two-fold serial dilution test, A.n (Table 6); type: cell-based; details: two-fold serial dilution in broth, 500 to 4 ppm
Description: (§1) A minimum inhibitory concentration (MIC) value is obtained using a broth, two-fold serial dilution test performed as follows: […] A volume of the stock solution is dispensed into culture media to give an initial starting test concentration of 500 ppm compound. When the test is ready to be done, each vessel in the dilution series, except the first vessel, contains an equal volume of compound free broth. The first vessel contains twice the volume of broth with the starting concentration of test compound. One half of the broth from the first vessel is transferred to the second vessel. After being mixed, one half the resulting volume is removed from the second vessel and transferred to the third vessel. […] Each vessel is then inoculated with a cell suspension of the appropriate test organism. Bacteria are grown in broth and fungi on agar […] for a time and at a temperature appropriate to the species being tested. At the end of the growth period, the broth is vortexed to disperse the cells. In the case of fungi, the spores are harvested by pipetting water onto the slant and dislodging the spores with a sterile loop. The cell/spore suspension is standardized by controlling incubation time, temperature, and the volume of the diluent. The suspension is then used to inoculate the vessels containing the broth compound. The vessels are then incubated at the appropriate temperature. […]

[12] = system: Aureobasidium pullulans (A.p); test: MIC, broth two-fold serial dilution test, A.p (Table 6); type: cell-based; details: two-fold serial dilution in broth, 500 to 4 ppm
Description: as §1

[13] = system: Pseudomonas aerugenosa (Ps.ae); test: MIC, broth two-fold serial dilution test, Ps.ae (Table 6); type: cell-based; details: two-fold serial dilution in broth, 500 to 4 ppm
Description: as §1

Escherichia coli (E.c) [14] = test: MIC, broth two-fold serial dilution test, E.c (Table 6); type: cell-based; details: two-fold serial dilution in broth, 500 to 4 ppm
Description: as §1

Pseudomonas fluorescens = test: Speed of Kill (SOK) Test, 4 hours (Table 6); type: cell-based; details: Ps. fluorescens in synthetic hard water, 30° C., read-out: SOK: concentration at which compound killed >99.999% of the cells
Description: The Speed of Kill (SOK) Test measures the loss of cell viability in an aqueous suspension of bacterial cells during a four hour period when these cells are contacted with a defined concentration of the test compound in synthetic hard water (SHW). A stock solution or dispersion of the test compound, typically at a concentration of 1%, is made in a 5:3:2 solvent solution of acetone, methanol, and water. The SHW is made by taking one liter of sterile deionized water and adding the following solutions to it:
1. 2 ml of a solution of 31.74 g of MgCl2 and 73.99 g of CaCl2 in 1000 ml. of sterile distilled water which has been heat sterilized.
2. 4 ml of a solution of 56.03 g of NaHCO3 in 1000 ml of water which has been filter sterilized.
The combined solution is then filter sterilized to yield the SHW. A volume of the stock solution is dispensed into the SHW to give an initial test compound starting concentration of 500 ppm.
When the test is ready to be run, each vessel in the dilution series, except the first vessel, contains an equal volume of the SHW mixture with the test compound. The first vessel contains twice the volume of SHW with the starting concentration of test compound. One half of the SHW from the first vessel is transferred to the second vessel. After being mixed, one half the resulting volume is removed from the second vessel and transferred to the third vessel. […]

[15] = system: Staphylococcus aureus (S.a); test: MIC, broth two-fold serial dilution test, S.a (Table 6); type: cell-based; details: two-fold serial dilution in broth, 500 to 4 ppm
Description: as §1

[16] = system: Pseudomonas fluorescens (Ps.fl); test: MIC, broth two-fold serial dilution test, Ps.fl (Table 6); type: cell-based; details: two-fold serial dilution in broth, 500 to 4 ppm
Description: as §1

[17] = system: Puccinia recondita (f. sp. tritici Races PKB and PLD); details: in vivo

| Compound | MIC (Candida albicans (C.alb)) [µg/mL] | % Control WSR ([1]; application rate 300 ppm) [%] | MIC [2] [µg/mL] | MIC (Aspergillus niger (A.n) [3]) [µg/mL] | MIC (Escherichia coli (E.c) [4]) [µg/mL] | % Control WPM [5] [%] | MIC [6] [µg/mL] | % Control TLB (Phytophthora infestans; application rate 300 ppm) [%] | % Control CDM [7] [%] | MIC [8] [µg/mL] | % Control RSB [9] [%] | MIC [10] [µg/mL] | % Control RB (Piricularia oryzae; application rate 200 ppm) [%] | % Control TLB (Phytophthora infestans; application rate 100 ppm) [%] | % Control RB (Piricularia oryzae; application rate 100 ppm) [%] | also measured |
| --- | --- | --- | --- | --- | --- | --- | --- | --- | --- | --- | --- | --- | --- | --- | --- | --- |
| CC(=O)C(S/C=C\C(=O)NCc1ccccc1)C(C)=O [Example 2, N-benzyl-cis-3-thio-(1-acetylpropan-2-on-1-yl)acrylamide] | 31 to 63 (≈ 106 to 216 µM) | 40 | 31 (≈ 106 µM) | 125 to 500 (≈ 429 to 1720 µM) | 63 to 125 (≈ 216 to 429 µM) | 0 | 500 (≈ 1720 µM) | 0 | 70 | > 500 | 0 | 31 (≈ 106 µM) |  |  |  | % Control RB (Piricularia oryzae; application rate 300 ppm): 0% |
| CC(=O)C(S/C=C\C(=O)NCc1ccc(Cl)cc1)C(C)=O [Example 4, N-(p-chlorobenzyl)-cis-3-thio-(1-acetylpropan-2-on-1-yl)-acrylamide] | 63 (≈ 193 µM) | 30 | 16 (≈ 49.1 µM) | 31 to 500 (≈ 95.1 to 1530 µM) | 63 (≈ 193 µM) | 0 | > 500 | 15 | 95 | > 500 | 0 | 31 (≈ 95.1 µM) | 89 |  |  |  |
| CC(=O)C(S/C=C\C(=O)NCCc1ccccc1)C(C)=O [Example 3, N-(beta-phenethyl)-cis-3-thio-(1-acetylpropan-2-on-1-yl)-acrylamide] | 31 (≈ 102 µM) | 40 | 8 to 16 (≈ 26.2 to 52.4 µM) | 63 to 500 (≈ 206 to 1640 µM) | 250 (≈ 819 µM) | 0 | > 500 | 20 | 90 | > 500 | 0 | 63 (≈ 206 µM) | 94 |  |  |  |
| CC(=O)C(S/C(Cl)=C(/C)C(=O)Nc1ccc(Cl)cc1)C(C)=O [Example 1, N-(p-Chlorophenyl)-2-methyl-3-chloro-cis-3-thio-(1-acetylpropan-2-on-1-yl)acrylamide] | < 4 | 70 | < 4 | 4 to 8 (≈ 11.1 to 22.2 µM) | < 4 | 0 | 8 (≈ 22.2 µM) | 90 | 100 | 4 to 16 (≈ 11.1 to 44.4 µM) | 0 | < 4 | 80 |  |  | MIC (Aspergillus niger (A.n) [11]): < 4 µg/mL; MIC [12]: < 4 µg/mL; MIC [13]: < 4 µg/mL; MIC (Escherichia coli (E.c) [14]): < 4 µg/mL; MBC (Pseudomonas fluorescens): 32 µg/mL (≈ 88.8 µM); MIC [15]: < 4 µg/mL; MIC [16]: < 4 µg/mL |
| CC(=O)C(S/C=C(/C)C(=O)Nc1ccc(Cl)cc1)C(C)=O [Example 7, N-(p-chlorophenyl)-2-methyl-cis-3-thio-(1-acetylpropan-2-on-1-yl)acrylamide] | 16 (≈ 49.1 µM) |  | 4 to 8 (≈ 12.3 to 24.6 µM) | 31 to 63 (≈ 95.1 to 193 µM) | 63 to 125 (≈ 193 to 384 µM) | 60 | > 500 |  | 0 | > 500 | 0 | 125 (≈ 384 µM) |  | 0 | 50 | % Control WLR [17]: 50% |
| CC(=O)C(S/C(Cl)=C\C(=O)Nc1ccc(Cl)cc1)C(C)=O [Example 6, N-(p-chlorophenyl)-3-chloro-cis-3-thio-(1-acetylpropan-2-on-1-yl)acrylamide] |  |  |  | > 500 |  | 0 |  |  | 85 | > 500 | 0 |  |  | 0 | 50 | % Control WLR [17]: 50% |
| CC(=O)C(S/C(Cl)=C(/C)C(=O)Nc1ccccc1)C(C)=O [Example 5, N-phenyl-2-methyl-3-chloro-cis-3-thio-(1-acetylpropan-2-on-1-yl)acrylamide] | 16 (≈ 49.1 µM) |  | 16 (≈ 49.1 µM) | < 4 | < 4 | 0 | 16 to 31 (≈ 49.1 to 95.1 µM) |  | 49 | 16 (≈ 49.1 µM) |  | 8 (≈ 24.6 µM) |  | 35 | 50 | % Control WSR ([1]; application rate 100 ppm): 50%; MIC (Aspergillus niger (A.n) [11]): < 4 µg/mL; MIC [12]: 32 µg/mL (≈ 98.2 µM); MIC [13]: 8 µg/mL (≈ 24.6 µM); MIC (Escherichia coli (E.c) [14]): < 4 µg/mL; MBC (Pseudomonas fluorescens): < 4 µg/mL; MIC [15]: < 4 µg/mL; MIC [16]: < 4 µg/mL |
